Test results as given in PubChem BioAssay AID1417 (Emory University Molecular Libraries Screening Center, 2008).

These molecules were tested against Induced myeloid leukemia cell differentiation protein Mcl-1 (Homo sapiens) (UniProt Q07820) (assay: Mcl-1 Noxa peptide disruption concentration-response – biochemical, TR-FRET, dose response (AID 1417)). Conditions: Mcl-1/Noxa peptide interaction, cell-free TR-FRET (terbium/rhodamine), 2 h; measured here: absolute IC50.
Chain of Induced myeloid leukemia cell differentiation protein Mcl-1 (Homo sapiens) (Q07820 whole entry, looked up): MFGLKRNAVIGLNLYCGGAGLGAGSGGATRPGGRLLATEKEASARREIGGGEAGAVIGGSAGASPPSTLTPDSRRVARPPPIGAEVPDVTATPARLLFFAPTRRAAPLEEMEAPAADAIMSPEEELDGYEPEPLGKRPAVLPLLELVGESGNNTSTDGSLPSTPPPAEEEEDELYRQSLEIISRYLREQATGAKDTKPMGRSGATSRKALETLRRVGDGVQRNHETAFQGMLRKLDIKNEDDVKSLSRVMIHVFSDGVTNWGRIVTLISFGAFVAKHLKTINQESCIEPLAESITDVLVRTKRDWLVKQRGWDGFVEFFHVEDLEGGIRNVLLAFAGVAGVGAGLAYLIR
In the case of CCCCNC(=O)c1ccc2nc(-c3ccco3)c(-c3ccco3)nc2c1, the IC50 is reported as < 0.4 µM. With COc1ccc(C(=O)Nc2cccc(/C=C(\CCC(=O)O)c3nc4ccccc4s3)c2)cc1 the IC50 was 3.94 µM. In the case of O=C(O)c1cc(N/N=C/c2ccc(N3CCOCC3)s2)ccc1Cl, the IC50 is reported as 1.08 µM. With Oc1c(Cl)cc(Cl)c(Cl)c1Cc1c(O)c(Cl)cc(Cl)c1Cl the IC50 was < 0.4 µM. With Oc1ccc(-c2csc(Nc3ncccn3)n2)cc1O the IC50 was < 0.4 µM. For Cc1ccc(C(=O)Nc2ccc(N3CCCC3)cc2)c(C)c1, the IC50 was > 54 µM. With COc1ccc(-c2cc3nc4ccccc4n3c(N)c2C#N)cc1 the IC50 was 4.45 µM. With CC(=O)c1cc(C#N)c(SCc2ccccn2)nc1C the IC50 was > 54 µM. With O=C1Oc2ccccc2C(=O)/C1=C/c1ccccc1O the IC50 was 3.62 µM. Molecule Cc1ccc(NC2=C(NC(=O)c3ccccc3)C(=O)c3ccccc3C2=O)cc1Cl has an IC50 of 3.9 µM. Molecule O=C(NC1CCCCC1)c1sc(=S)n2c1[nH]c(=O)c1ccccc12 has an IC50 of 15.9 µM. For Oc1ccc(/C=N/Nc2ccnc3cc(Cl)ccc23)c(O)c1, the IC50 was < 0.4 µM. With COc1ccc(Nc2cc(C)c3c(O)cccc3n2)cc1 the IC50 was 7.12 µM. In the case of CCOc1cc(CNc2ccc(N3CCCC3)cc2)cc(Cl)c1OC, the IC50 is reported as > 54 µM. With C/C(=N\NC(=O)c1cccc(N/N=C(\C)c2cc(O)ccc2O)c1)c1cc(O)ccc1O the IC50 was < 0.4 µM. Nc1cccc(C2=Nc3cccc4cccc(c34)N2)c1 was tested, and the IC50 was < 0.4 µM. Molecule O=C(O)c1ccccc1-c1ccc(/C=c2\sc3nc4cc(Br)cnc4n3c2=O)o1 has an IC50 of 3.09 µM. With CCN(CC)c1ccc(NC(=O)/C=C\c2ccccc2Cl)cc1 the IC50 was < 0.4 µM. With CS(=O)(=O)c1ccc2c(c1)sc1nc(=O)c(/C=C3/C=CC(=O)C(O)=C3)c(N)n12 the IC50 was < 0.4 µM. For Nc1c(C(=O)NCc2ccco2)sc2nc3c(cc12)C(=O)CCC3, the IC50 was 2.34 µM. N=c1c(C(=O)NCc2ccc(F)cc2)cc2c(=O)n3ccccc3nc2n1Cc1cccnc1 was tested, and the IC50 was 3.21 µM. O=C1/C(=C\c2ccc(O)cc2)SC(=S)N1/N=C/c1ccc(O)cc1 was tested, and the IC50 was 2.99 µM. For CSC1=N/C(=C\c2ccccc2F)C(=O)S1, the IC50 was > 54 µM. For O=C(Nc1cccc(S(=O)(=O)N2CCOCC2)c1)c1c2c(nc3ccccc13)CCC2, the IC50 was 3.08 µM. For O=C(O)c1ccccc1/C=N/NC(=O)c1cc(-c2ccco2)nc2ccccc12, the IC50 was < 0.4 µM. With Cc1cccc(NC(=O)c2cccs2)n1 the IC50 was > 54 µM. With CC(C)c1ccc(S(=O)(=O)/N=C2/C=CC(=O)c3ccccc32)cc1 the IC50 was < 0.4 µM. CC1=C(C#N)c2nc(N)c(C#N)c(C)c2/C1=C\c1ccc(-c2ccccc2C(=O)O)o1 showed an IC50 of 2.98 µM. COc1ccc(C(=O)CSc2nnc(-c3ccco3)c(-c3ccco3)n2)cc1 gave an IC50 of 7.95 µM. C=CCn1c(N2CCCCCC2)nc2c1c(=O)n(C)c(=O)n2C was tested, and the IC50 was > 54 µM. CN(C)c1ccc(NC(=O)c2cccc(C(=O)Nc3ccc(N(C)C)cc3)n2)cc1 was tested, and the IC50 was 4.03 µM. C/C(=N\NC(=O)c1cccc(N/N=C(\C)c2ccco2)c1)c1ccco1 showed an IC50 of 2.88 µM. C=CCSC1=N/C(=C\C=C\c2ccco2)C(=O)S1 gave an IC50 of 5.07 µM. With CSc1nnc(-c2ccco2)c(-c2ccco2)n1 the IC50 was 13.2 µM. For CCc1nn2c(=O)cc(COc3ccc(/C=C4\C(=N)N5N=C(C)SC5=NC4=O)cc3)nc2s1, the IC50 was 3.78 µM. With CC(=O)Nc1ccc(C2=NNC(=Nc3cccc(S(=O)(=O)N(C)C)c3)SC2)cc1 the IC50 was 3.03 µM. For COc1cc(/C=C2\SC(=O)NC2=O)ccc1Oc1ccc([N+](=O)[O-])cc1[N+](=O)[O-], the IC50 was 3.29 µM. For Cn1c(SCC(=O)Nc2ccc3nc(SCC(=O)N4CCCC4)sc3c2)nnc1-c1ccc(N)cc1, the IC50 was 0.688 µM. In the case of O=c1c2ccccc2sn1-c1cc(S(=O)(=O)N2CCOCC2)ccc1N1CCOCC1, the IC50 is reported as < 0.4 µM. For COc1cc(/C=C/C(=O)OCC(=O)Nc2cc(C)c(C)cc2[N+](=O)[O-])ccc1O, the IC50 was 2.4 µM. Cc1ccc(-c2cc(C(=O)N3CCN(c4ncccn4)CC3)c3cc(Br)ccc3n2)o1 showed an IC50 of 3.78 µM. In the case of O=[N+]([O-])c1cc(Cl)cc(/C=N/NC(=S)Nc2cc(S(=O)(=O)N3CCOCC3)ccc2Cl)c1O, the IC50 is reported as < 0.4 µM. In the case of Cc1c(Cl)cnc(NC(=O)COC(=O)c2ccc([N+](=O)[O-])s2)c1Cl, the IC50 is reported as 7.01 µM. Work on COc1ccccc1NC(=O)C(=O)N/N=C/c1ccc([N+](=O)[O-])s1 yielded an IC50 of 6.17 µM. For O=C1SC(SCc2ccccc2Cl)=N/C1=C\c1ccc(C(=O)O)cc1, the IC50 was 4.67 µM. COc1ccc(-n2c(N)c(-c3nc4ccccc4n3C)sc2=S)cc1 was tested, and the IC50 was > 54 µM. In the case of CN1CCN(c2ccc([N+](=O)[O-])cc2/C=N/NC(=O)c2cccc([N+](=O)[O-])c2)CC1, the IC50 is reported as 1.42 µM. For Oc1ccccc1NCC(O)Cn1ccc2ccccc21 (stereo unspecified), the IC50 was 5.23 µM. For CCOc1ccc2nc(NC(=O)c3cccc(-c4cc5ccccc5oc4=O)c3)sc2c1, the IC50 was 3.75 µM. In the case of Oc1ccc(N=Nc2cccc(Cl)c2)cc1C=Nc1ccc(N2CCOCC2)cc1, the IC50 is reported as > 54 µM. O=C(O)c1cc(N2N=C(C(F)(F)F)/C(=C/C=C/c3ccco3)C2=O)ccc1Cl was tested, and the IC50 was < 0.4 µM. CCN(c1ccc(NC(=O)COC(=O)/C=C/c2cccs2)cc1)C(C)C was tested, and the IC50 was 3.81 µM. Molecule COc1ccccc1C1C2=C(N=c3s/c(=C/c4cccc(OCC(=O)O)c4)c(=O)n31)c1ccccc1CC2 (stereo unspecified) has an IC50 of 2.15 µM. Work on N#CC(C#N)=NNc1ccc(S(N)(=O)=O)cc1 yielded an IC50 of 1.91 µM. NC(=O)c1ccsc1NC(=O)COC(=O)/C=C/c1ccc([N+](=O)[O-])cc1 showed an IC50 of 2.88 µM. Work on Cc1c2c(=O)n(-c3nc4ccccc4s3)nc-2cc(O)n1Cc1ccccc1 yielded an IC50 of 5.62 µM. Molecule O=C1NN(c2ccc(F)c(Cl)c2)C(=O)/C1=C\c1cccc(OC(=O)c2cccs2)c1 has an IC50 of 6.86 µM. With COC(=O)c1c(NC(=O)Cc2cccs2)sc2c1CCCC2 the IC50 was 8.95 µM. With COc1cc(/C=C2\SC(=S)N(CC(=O)Nc3ccc(O)cc3)C2=O)cc(OC)c1OC the IC50 was < 0.4 µM. For CN1C(=O)/C(=C2\SC(=S)N(CCCCCC(=O)O)C2=O)c2ccccc21, the IC50 was 2.85 µM. Cc1sc(NC(=O)c2cc(-c3ccc(Cl)cc3)nc3ccccc23)c(C(N)=O)c1C was tested, and the IC50 was 18.2 µM. With N#Cc1cc(-c2ccccc2)nn1-c1ccccc1 the IC50 was < 0.4 µM. With O=C(Nc1nc(-c2ccco2)c(-c2ccco2)s1)C1CC(=O)N(c2ccc3c(c2)OCCO3)C1 (stereo unspecified) the IC50 was 5.49 µM. With Cc1cc(C(=O)COC(=O)c2cc(O)c3ccccc3c2O)c(C)n1CC1CCCO1 (stereo unspecified) the IC50 was < 0.4 µM. In the case of Cc1cccc2c1c1ccc3c(c1n2C)C(=O)C=CC3=O, the IC50 is reported as < 0.4 µM. CNCc1ccccc1Sc1cc(O)ccc1O showed an IC50 of 4.17 µM. In the case of CCNc1ccc(Br)cc(C(=O)/C=C/c2c(Cl)cccc2Cl)c1=O, the IC50 is reported as 1.8 µM. COc1cc(SC)ccc1C(=O)N1CCN(c2ccccc2)CC1 was tested, and the IC50 was > 54 µM. For Cc1cccc(-c2nc(Nc3ccc(N4CCOCC4)cc3)c3ccccc3n2)c1, the IC50 was < 0.4 µM. In the case of COc1ccc2nc(NC(=O)Nc3cccc4ccccc34)sc2c1, the IC50 is reported as > 54 µM. For CCN(CC)c1ccc(NC(=O)Nc2cccc(C(C)=O)c2)cc1, the IC50 was > 54 µM. Cc1[nH]n(-c2ncc(-c3ccccc3)s2)c(=O)c1C(c1ccc(Br)cc1)C(C#N)C#N (stereo unspecified) was tested, and the IC50 was 6.54 µM. Cc1ccc(/C=C/C(=O)NCc2ccccn2)o1 gave an IC50 of 4.93 µM. Work on CN(c1ccccc1)c1ccc(/C=C(\CCC(=O)O)c2nc3ccccc3s2)cc1[N+](=O)[O-] yielded an IC50 of 1.06 µM. With CC(OC(=O)c1cccc(N2C(=O)c3ccccc3C2=O)c1)C(=O)Nc1ccc(N(C)C)cc1 (stereo unspecified) the IC50 was > 54 µM. COc1ccc(NC(=O)c2cc3cccc(OC)c3oc2=Nc2ccc(C(=O)O)cc2)cc1OC gave an IC50 of 2.38 µM. O=C1C=CC(=O)C(C2=C3C(=O)N(CCc4ccccc4)CC(=O)N3CCC2)=C1 was tested, and the IC50 was > 54 µM. In the case of CCCCCn1c(N)c(-c2nc3ccccc3o2)c2c([N+](=O)[O-])nn(CC)c(=O)c21, the IC50 is reported as 2.8 µM. COc1cnn(-c2ccc(Br)cc2)c(=O)c1SCc1ccccc1 was tested, and the IC50 was > 54 µM. With NC(=S)n1[nH]c(-c2ccc([N+](=O)[O-])cc2)c(N=Nc2cccc([N+](=O)[O-])c2)c1=O the IC50 was 1.65 µM. In the case of CN=c1scc(-c2cccs2)n1/N=C/c1ccc(O)c(O)c1O, the IC50 is reported as < 0.4 µM. COC(=O)N/N=C/c1cc(N=Nc2ccccc2Cl)ccc1O gave an IC50 of 3.74 µM. In the case of Cc1ccc(N2C(=O)NC(=O)/C(=C/c3cnc(-c4ccccc4)nc3)C2=O)cc1C, the IC50 is reported as 16.3 µM. For COc1ccc(/C=C2/C(=O)N(c3nc4ccccc4s3)N=C2CSc2ccc(Cl)cc2)cc1, the IC50 was < 0.4 µM. Cc1[nH]n(-c2ccc(Br)cc2)c(=O)c1C=Nc1ccc(S(=O)(=O)Nc2nccs2)cc1 gave an IC50 of 8.08 µM. For COc1cc(/C=N/NC(=O)c2cc(-c3ccco3)nc3ccccc23)cc(OC)c1O, the IC50 was < 0.4 µM. With COc1cc(/C=N/NC(=O)C(Cc2c[nH]c3ccccc23)NC(=O)OCc2ccccc2)cc([N+](=O)[O-])c1O (stereo unspecified) the IC50 was 4.82 µM. CC(C)N1CCc2c(sc(NC(=O)c3cc4cc([N+](=O)[O-])ccc4s3)c2C(N)=O)C1 gave an IC50 of 3.95 µM. For Cc1ccc2c(c1)C1CN(C)CCC1N2C(=O)Nc1cccc(Cl)c1 (stereo unspecified), the IC50 was > 54 µM. For COc1cc(-c2ccc(Nc3ccccc3C(=O)O)c(OC)c2)ccc1Nc1ccccc1C(=O)O, the IC50 was < 0.4 µM. In the case of COc1cc(/C=N\Nc2nc(-c3cccs3)c(NC(C)=O)s2)ccc1O, the IC50 is reported as < 0.4 µM. For C/C(=N/NC(=O)c1cc2ccccc2cc1O)C1C(=O)c2ccccc2C1=O, the IC50 was 0.919 µM. For CC(=O)N1CCc2cc(S(=O)(=O)NC(Cc3ccccc3)C(=O)NC3CCCCCC3)ccc21 (stereo unspecified), the IC50 was > 54 µM. With Cc1nnc(Sc2cc(NCCO)c([N+](=O)[O-])c3nonc23)s1 the IC50 was < 0.4 µM. In the case of Cc1sccc1/C=N/NC(=O)c1cccc2ccccc12, the IC50 is reported as > 54 µM. With CCC1=NNc2cccc3c(OC)ccc1c23 the IC50 was > 54 µM. With O=C(Cn1nc(C(=O)O)c2ccccc2c1=O)Nc1ccc2c(c1)C(=O)c1ccccc1C2=O the IC50 was 4.62 µM. For CC1CCCCC1NC(=O)c1ccc2c(c1)[nH]c(=O)n2C1CCCC1 (stereo unspecified), the IC50 was > 54 µM. COc1ccc2c3c(cccc13)N(C)N=C2C gave an IC50 of 0.931 µM. For CCN(CC)c1ccc(NC(=O)Nc2ccc(C(C)=O)cc2)cc1, the IC50 was > 54 µM. O=C(O)COc1ccc(/C=N/NC(=O)c2ccc(-c3csc(Nc4ccc(Cl)cc4)n3)cc2)cc1 gave an IC50 of 0.784 µM. For CN1CCC(N(C)c2nc(-c3ccc([N+](=O)[O-])cc3)nc3ccccc23)CC1, the IC50 was < 0.4 µM. For O=c1oc2ccccc2c(O)c1/C=C1\C=Nc2ccccc21, the IC50 was 4.8 µM. Cc1cc(C)c(S(=O)(=O)NCc2cn3c(C)csc3n2)cc1C was tested, and the IC50 was > 54 µM. With O=C(O)c1ccc(N2C(=O)/C(=C/c3ccc(-c4ccc([N+](=O)[O-])cc4)o3)C=C2c2ccccc2)cc1 the IC50 was < 0.4 µM. Cc1ccc(-n2c(O)c(C=Nc3ccccc3-c3n[nH]c(=S)[nH]c3=O)c3ccccc3c2=O)cc1C showed an IC50 of 2.75 µM.
